80 compounds from the METLIN SMRT retention time set (Domingo-Almenara et al. 2019) can be followed below.

A short description of this series: gradient 5% acetonitrile 3 min, to 50% in 2 min, to 85% in 15 min, held 3 min, 100 µL/min. As to conditions: column: Zorbax Extend-C18 2.1 x 50 mm; eluents: water / acetonitrile, 0.1% formic acid. In short, it runs like this: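 Retention times come from adduct peaks that were picked computationally and then checked by hand. The standards, pure and pooled in mixtures of ~100 molecules, were run on a Zorbax Extend-C18 column (2.1 × 50 mm, 1.8 μm) at 100 μL/min with water and acetonitrile, each with 0.1% formic acid. Detection was by quadrupole time-of-flight mass spectrometry in positive and negative ionization mode, with a dead volume of 40 μL and a dwell volume of 900 μL.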
`COc1cc(OC)c(NC(=O)c2[nH]c(C)c(S(=O)(=O)N3CCCC3)c2C)cc1Cl` yielded an RP-LC retention time of 982 s.

The compound `CCCCCCNC(=O)C1CCN(C(=O)C(C)(C)C)CC1` registered an RP-LC retention time of 804 s.

For the compound `CCC(=O)Nc1ccc(-c2nc(-c3ccc(Cl)cc3)no2)cc1`, the RP-LC retention time worked out at 1130 s.

Turning to `CC1CCCN(CCNC(=O)C2CCc3nc(N4CCOCC4)ncc3C2)C1` (stereo not given), the RP-LC retention time came to 557 s.

Take `Cc1ccccc1C(=O)NCCc1c[nH]c2ccc(Cl)cc12`: the RP-LC retention time worked out at 889 s.

In turn, `CCS(=O)(=O)N1CC(=O)N(c2ccc(Cl)cc2)C(C)(C(=O)NC2CCCCC2)C1` (stereo not given) gave an RP-LC retention time of 882 s.

The compound `Cc1ccc(CNC(=O)CC2CCN(C(=O)c3[nH]c(C)c(C(=O)OC(C)C)c3C)CC2)cc1` displayed an RP-LC retention time of 853 s.

For the compound `Cc1cccnc1NC(=O)c1csnn1`, the RP-LC retention time was 637 s.

`COc1ccccc1NC(=O)c1cccc(N2CCNC(c3ccccc3)C2)n1` (stereo not given) had an RP-LC retention time of 693 s.

The compound `CCn1c(C)c(-c2nc(C3CC3)no2)c(S(=O)(=O)N2CCC(C)CC2)c1C` displayed an RP-LC retention time of 904 s.

Consider `O=c1ccc(-c2ccc3c(c2)OCO3)nn1CCc1nc(-c2ccccc2Br)no1`, for which the RP-LC retention time worked out at 936 s.

Turning to `Cc1ccc(-c2nccn3cc(C(=O)NC(C)C)nc23)cc1`, the RP-LC retention time is 883 s.

`Cc1cc(C(=O)Nc2nc3c(s2)CN(C(=O)c2nc4ccccc4s2)CC3)no1` returned an RP-LC retention time of 870 s.

As for `O=C(CN1C(=O)C2CCCCC2C1=O)N1CCN(Cc2ccc3c(c2)OCO3)CC1` (stereo not given), the RP-LC retention time is 603 s.

`Cc1nc2cc(NC(=O)c3ccc(S(=O)(=O)N(C)CC4CCCO4)cc3)ccc2s1` (stereo not given): the RP-LC retention time worked out at 764 s.

`Cc1nn2c(CNS(=O)(=O)c3ccccc3C)c(-c3ccccc3)nc2s1` gave an RP-LC retention time of 827 s.

`COc1ccc(CNC(=O)COc2nc(C)nc3ccccc23)cc1` yielded an RP-LC retention time of 678 s.

Regarding `Cc1[nH]c(C(=O)N2CCC(CC(=O)N3CCN(c4ccccc4)CC3)CC2)c(C)c1C(=O)OC(C)C`, the RP-LC retention time is 939 s.

Take `COCCCn1c(=O)c2ccccc2n(Cc2nc(-c3ccccc3OC)no2)c1=O`: the RP-LC retention time came out at 874 s.

As for `Cc1cc2c(c(=O)n(-c3ccc(F)cc3)c(=O)n2CC(=O)Nc2ccc(F)c(Cl)c2)n1C`, the RP-LC retention time turned out to be 854 s.

The compound `O=C(NCc1ccc(F)cc1)N1CCN(Cc2nc3cc(-c4ccccc4)ccc3o2)CC1` had an RP-LC retention time of 850 s.

`Cc1ccc(-n2ccc(=O)c(-c3nc(-c4ccccc4C)no3)n2)cc1` returned an RP-LC retention time of 987 s.

For `Cc1noc(C2(NC(=O)c3ccc(C(C)(C)C)cc3)CCCCC2)n1`, the RP-LC retention time worked out at 1090 s.

`Cc1ccccc1-c1nc(-c2ccc3nncn3c2)no1` gave an RP-LC retention time of 872 s.

As to `COCc1nncn1C1CCN(S(=O)(=O)c2ccc(Cl)cc2C)CC1`, the RP-LC retention time is 770 s.

`COc1ccc(Nc2c(-c3ccc(N4CCOCC4)cc3)nc3ncccn23)cc1` showed an RP-LC retention time of 654 s.

Consider `NC(=O)Cc1csc(NC(=O)COc2ccc3c(c2)C(=O)CC3)n1`, for which the RP-LC retention time came out at 600 s.

For the compound `COc1cc(OC)cc(-c2noc(-c3nn(-c4cccc(F)c4)ccc3=O)n2)c1`, the RP-LC retention time is 881 s.

`CCCNS(=O)(=O)c1ccc(Cl)c(-c2nnc(-c3ccccc3)o2)c1` had an RP-LC retention time of 1010 s.

The compound `CC(=O)Nc1cc(-c2nc(-c3ccc4oc(-c5ccccc5)nc4c3)no2)ccc1C` returned an RP-LC retention time of 738 s.

`Cc1nc2cc(N3CC(C(=O)Nc4ccc(Cl)cc4C)CC3=O)ccc2o1` (stereo not given) registered an RP-LC retention time of 781 s.

`COC(=O)c1c(NCc2c(C)noc2C)c2ccccc2[nH]c1=O` returned an RP-LC retention time of 661 s.

Regarding `O=C(Nc1ccc2c(c1)OCCO2)N1CCCC(Cn2c(C3CC3)nc3cccnc32)C1` (stereo not given), the RP-LC retention time was 645 s.

The compound `O=C(Cc1csc2nc(-c3ccccc3)cn12)NC1CCCCCC1` gave an RP-LC retention time of 808 s.

Consider `CCS(=O)(=O)N1CCCc2cc(C(=O)NC(C)C)ccc21`, for which the RP-LC retention time came to 746 s.

Turning to `CCC(C)NC(=O)COc1nc(C)nc2onc(-c3cccc(F)c3)c12` (stereo not given), the RP-LC retention time worked out at 932 s.

The compound `Cc1ccc(NS(=O)(=O)c2ccc3c(c2)C(=O)N(C)c2ncccc2O3)cc1F` displayed an RP-LC retention time of 957 s.

In turn, `COc1cccc(-c2noc(COC(=O)C3=CN(C)S(=O)(=O)N=C3C)n2)c1` displayed an RP-LC retention time of 926 s.

The compound `Cc1ccc(S(=O)(=O)N2CCC(CC(=O)NC(C)c3ccccc3)CC2)cc1` (stereo not given) came in with an RP-LC retention time of 917 s.

Take `CCCOc1nc2ccccc2nc1N1CCCC(C(=O)N2CCN(c3ccccc3F)CC2)C1` (stereo not given): the RP-LC retention time came to 1380 s.

In turn, `O=C(c1ccco1)C(C(c1cccc(Cl)c1)N1CCOCC1)N1CCOCC1` (stereo not given) displayed an RP-LC retention time of 782 s.

Regarding `CCOc1ccc(NC(=O)c2nc(C)oc2C)cc1`, the RP-LC retention time amounted to 884 s.

`CCC(C(=O)NCCc1ccc(Cl)cc1)n1cnc2oc(C)c(C)c2c1=O` (stereo not given) showed an RP-LC retention time of 924 s.

Compound `O=C(NC1CCCCCC1)c1csc(-c2ccc(N3CCCC3)nc2)n1` came in with an RP-LC retention time of 774 s.

`Cc1cc2nn(CC(=O)Nc3ccccc3F)c(=O)n2c(Nc2ccc(F)cc2)n1` registered an RP-LC retention time of 967 s.

Consider `CCOc1ccc2nc(Nc3ncc4c(n3)CC(c3ccc(F)cc3)CC4=O)nc(C)c2c1` (stereo not given), for which the RP-LC retention time was determined as 833 s.

`O=C(Nc1cccc(F)c1)C1CCN(S(=O)(=O)c2ccc3[nH]c(=O)ccc3c2)CC1`: the RP-LC retention time amounted to 736 s.

Consider `COC(=O)c1c(-c2ccc(OC)cc2)csc1N`, for which the RP-LC retention time was found to be 822 s.

Consider `O=C(Nc1nccs1)C1CCN(C(=O)c2cccc(C(F)(F)F)c2)CC1`, for which the RP-LC retention time worked out at 728 s.

For `COc1ccc(CN2C(=O)C3(CCOCC3)CC2c2nnnn2C(C)(C)C)cc1` (stereo not given), the RP-LC retention time came out at 760 s.

In turn, `CCOc1ccc(NS(=O)(=O)c2cc(C(=O)N3CCN(c4cccc(Cl)c4)CC3)n[nH]2)cc1` returned an RP-LC retention time of 980 s.

In turn, `CCC1CN2C=Nc3oc(C)c(C(=O)Nc4ccc(C(F)(F)F)cc4)c3C2=N1` (stereo not given) came in with an RP-LC retention time of 753 s.

`O=C(Cc1nnc(-c2ccc3ncccc3c2)o1)NC1CCCCC1` showed an RP-LC retention time of 679 s.

As for `CCOc1ccc(CNC(=O)c2c(C)sc3ccn(CC)c(=O)c23)cc1`, the RP-LC retention time worked out at 836 s.

For the compound `CCc1csc(-c2cn(CC(=O)Nc3ccc(OC)c(Cl)c3)cn2)n1`, the RP-LC retention time turned out to be 727 s.

`Cc1csc(-c2ccc(N3CCN(C(=O)c4ccc5ccccc5n4)CC3)nc2)n1`: the RP-LC retention time turned out to be 833 s.

Take `Cc1cccc(N2CCN(C(=O)c3cc(C)n4nccc4n3)CC2)c1`: the RP-LC retention time was determined as 829 s.

`COC(=O)c1cccc(C(=O)Nc2ccc(C)c(Cl)c2)n1` had an RP-LC retention time of 991 s.

On to `O=c1n(Cc2ccc(F)cc2Cl)nc2ccc(S(=O)(=O)N3CCCC3)cn12`, for which the RP-LC retention time turned out to be 922 s.

Compound `Cn1cccc1C(=O)N1CCC2(CC1)NC(=O)N(Cc1cccc(Cl)c1)C2=O` gave an RP-LC retention time of 821 s.

For `Cc1cc(C)n(CCNC(=O)C(=O)Nc2cc(C)on2)n1`, the RP-LC retention time is 608 s.

The compound `Cn1cc(C(=O)NCCN2CCCCC2)c(S(=O)(=O)N2CCN(c3ccc(Cl)cc3)CC2)n1` had an RP-LC retention time of 728 s.

As to `CC1CCCN(C(=O)c2cn(-c3ccc(-c4nc(C(C)(C)C)no4)cn3)cn2)C1` (stereo not given), the RP-LC retention time is 1080 s.

`O=C(c1cc(C2CC2)[nH]n1)N1CCC(F)(F)C(COCC2CC2)C1` (stereo not given): the RP-LC retention time amounted to 805 s.

The compound `CCOC(=O)N1CCN(c2cc(C(=O)O)c3cc(NC(=O)c4ccccc4OC)ccc3n2)CC1` displayed an RP-LC retention time of 629 s.

Compound `Cc1cc(=O)n(CC(=O)Nc2ccc(F)cc2)c(N)n1` displayed an RP-LC retention time of 592 s.

Compound `COc1nccnc1N1CCC(N(C)C(=O)NCc2cccc(F)c2)C1` (stereo not given) gave an RP-LC retention time of 697 s.

Compound `O=C(Nc1ccc(F)c(Cl)c1)Nc1c(-c2ccncc2)nc2ccccn12` showed an RP-LC retention time of 628 s.

In turn, `CCN(CCN(C)C)c1ccc(C(=O)O)cc1NS(=O)(=O)c1ccccc1` returned an RP-LC retention time of 610 s.

Regarding `CCCC(N[C@@H](C)C(=O)N1[C@H](C(=O)O)C[C@@H]2CCCC[C@@H]21)C(=O)OCC` (stereo not given in full), the RP-LC retention time was determined as 703 s.

The compound `O=C(Cn1ccc2ccc(N3CCOCC3)nc21)NC1CCN(Cc2ccccc2)CC1` gave an RP-LC retention time of 638 s.

On to `Cc1ccc(-c2noc(Cn3c(=O)n(-c4cccc(C)c4)c(=O)c4sccc43)n2)cc1`, for which the RP-LC retention time amounted to 1070 s.

Compound `Cn1nccc1C(=O)N1CCC(c2cc(-c3ccc(F)cc3)n[nH]2)CC1` returned an RP-LC retention time of 712 s.

The compound `Cc1ccc(C(=O)N2CCC3(CC2)N=C(c2ccc(Br)cc2)NO3)cc1` had an RP-LC retention time of 875 s.

Regarding `Cn1c(CCNC(=O)c2ccc(F)c(F)c2)nc2cccnc21`, the RP-LC retention time was 617 s.

With `COc1ccc(N2CCN(CCNC(=O)CCSc3ccccc3)CC2)cc1`, the RP-LC retention time worked out at 606 s.

Take `Cc1cc(C)cc(NC(=O)N2CCC(CN3CCCC(C)C3)CC2)c1` (stereo not given): the RP-LC retention time came to 648 s.

In the case of `Cc1cc(=O)n(CC(=O)Nc2cc(F)ccc2F)c(N2CCCCC2)n1`, the RP-LC retention time was 708 s.

As to `CN1C(=O)c2cccn2CC1C(=O)NCc1ccco1` (stereo not given), the RP-LC retention time turned out to be 613 s.

Regarding `Cn1cc(-c2nc(C(=O)Nc3ccc(C#N)cc3)cs2)c2cccnc21`, the RP-LC retention time was 958 s.
